Here are results for 28 compounds from article PMC8286840, “Identifying SARS-CoV-2 antiviral compounds by screening for small molecule inhibitors of Nsp3 papain-like protease” (Biochemical Journal, 2021).

Where a name gives a salt, the structure may show the parent alone. Read-outs that look alike come from different tables or passages of the source.

The target of assay [1] is T1, SARS-CoV-2 PLpro (nsp3 1564–1878) (Severe acute respiratory syndrome coronavirus 2, UniProt P0DTD1). Nature of the assay: biochemical. More on the design: FRET-quenched peptide (Pro3) cleavage by PLpro, 10 min pre-incubation, slope over 20 min, normalised to no-compound control. The settings on record: high concentration screen, read-out: % of control remaining.
The target in assay [2] is T1, SARS-CoV-2 PLpro (nsp3 1564–1878). In words: biochemical. The settings on record: low concentration screen, read-out: % of control remaining. Also on record: FRET-quenched peptide (Pro3) cleavage by PLpro, 10 min pre-incubation, slope over 20 min, normalised to no-compound control.

For the compound `O=C(O)CC(=O)CC(=O)O` [3-Oxopentanedioic acid], in assay [1] (Well no.=7499), the remaining activity at 3.75 µM worked out at 99.7%. Also, the remaining activity at 1.25 µM in assay [2] (Well no.=7499) is 97.9%.

Turning to `Cc1cc(/C=N/NC(=O)c2cc(Br)c(O)c(Br)c2)c(C)n1-c1cccc([N+](=O)[O-])c1` [Kinesore], the remaining activity at 3.75 µM in assay [1] (Well no.=7784) stood at 91.7%. In assay [2] (Well no.=7784), the remaining activity at 1.25 µM turned out to be 93.8%.

As to `Nc1ncnc2c1nc(Br)n2[C@@H]1O[C@@H]2COP(=O)(O)O[C@H]2[C@H]1O` [8-Bromo-cAMP sodium], the remaining activity at 3.75 µM in assay [1] (Well no.=129) stood at 111%. Besides, in assay [2] (Well no.=129), the remaining activity at 1.25 µM amounted to 108%.

Consider `Clc1ccc(N/N=C(\c2ccccc2)c2ccccn2)nc1` [(E)-5-chloro-2-(2-(phenyl(pyridin-2-yl)methylene)hydrazinyl)pyridine], for which the remaining activity at 3.75 µM in assay [1] (Well no.=5428) was 96.4%. In addition, the remaining activity at 1.25 µM in assay [2] (Well no.=5428) was 91.3%.

With `C[S+]([O-])c1ccc(-c2nc(-c3ccc(F)cc3)c(-c3ccncc3)[nH]2)cc1` (stereo not shown) [SB 203580], the remaining activity at 3.75 µM in assay [1] (Well no.=2644) was 91.7%. For the same compound, the remaining activity at 1.25 µM in assay [2] (Well no.=2644) came out at 91.3%.

Take `Nc1c2c(nc3ccccc13)CCCC2O` (stereo not shown) [Hydroxytacrine maleate]: in assay [1] (Well no.=514), the remaining activity at 3.75 µM is 101%. Moreover, the remaining activity at 1.25 µM in assay [2] (Well no.=514) amounted to 102%.

With `Nc1ccc(CNc2ncnc3c2ncn3[C@@H]2O[C@H](CO)[C@@H](O)[C@H]2O)cc1` [N-[(4-Aminophenyl)methyl]adenosine], the remaining activity at 3.75 µM was determined as 100% in assay [1] (Well no.=8319) and 99.6% in assay [1] (Well no.=8895). The remaining activity at 1.25 µM in assay [2] (Well no.=8319) amounted to 104%; in assay [2] (Well no.=8895), 102%.

Consider `Cc1cc(N2C[C@@H](C)N[C@@H](C)C2)ncc1-c1ccc(-c2nc3c(ccn3C)c(=O)[nH]2)cc1` [AZ6102], for which the remaining activity at 3.75 µM in assay [1] (Well no.=8482) came to 96.4%. Further, the remaining activity at 1.25 µM in assay [2] (Well no.=8482) stood at 97.8%.

For `CN(C)CCCn1cc(C2=C(c3c[nH]c4ccccc34)C(=O)NC2=O)c2ccccc21` [Bisindolylmaleimide I], the remaining activity at 3.75 µM in assay [1] (Well no.=2325) amounted to 98.8%. Moreover, the remaining activity at 1.25 µM in assay [2] (Well no.=2325) came to 97.2%.

Consider `O=C(c1ccc(F)cc1)C1CCN(CCn2c(=O)[nH]c3ccccc3c2=O)CC1` [Ketanserin (tartrate)], for which, in assay [1] (Well no.=6519), the remaining activity at 3.75 µM came out at 103%. Further, the remaining activity at 1.25 µM in assay [2] (Well no.=6519) was determined as 100%.

For `Cn1c(N2CCCCS2(=O)=O)nc(C(=O)NCc2ccc(F)cc2)c(O)c1=O` [BMS-707035], the remaining activity at 3.75 µM in assay [1] (Well no.=5193) turned out to be 106%. The remaining activity at 1.25 µM in assay [2] (Well no.=5193) was 105%.

Consider `CCCCC/C=C\C[C@@H](O)/C=C/C=C/C=C\[C@@H](O)CCCC(=O)O` [Leukotriene B4], for which the remaining activity at 3.75 µM in assay [1] (Well no.=4423) was determined as 97.4%. In assay [2] (Well no.=4423), the remaining activity at 1.25 µM is 101%.

For the compound `CN[C@H]1C[C@@H](N)[C@H](O)[C@@H](O[C@@H]2O[C@H](CO)[C@H](O)[C@@H]3OC4(O[C@H]23)O[C@H]([C@@H](N)CO)[C@H](O)[C@H](O)[C@H]4O)[C@@H]1O` (stereo partly shown) [Hygromycin B], the remaining activity at 3.75 µM in assay [1] (Well no.=5221) turned out to be 102%. For the same compound, the remaining activity at 1.25 µM in assay [2] (Well no.=5221) came to 99.8%.

For `Nc1ncnc2c1ncn2[C@H]1C[C@H](O)[C@@H](CO)O1` [2'-Deoxyadenosine], the remaining activity at 3.75 µM was found to be 105% in assay [1] (Well no.=6691) and 101% in assay [1] (Well no.=7722). For the same compound, the remaining activity at 1.25 µM came to 106% in assay [2] (Well no.=6691) and 95.5% in assay [2] (Well no.=7722).

For `CC(=O)N[C@@H](CS)C(=O)O` [Acetylcysteine], the remaining activity at 3.75 µM in assay [1] (Well no.=6161) was 103%; in assay [1] (Well no.=8266) it was 101%. In addition, the figures for the remaining activity at 1.25 µM in assay [2] (Well no.=6161) and in assay [2] (Well no.=8266) were 102% and 99.9%, respectively.

As to `CCOC(=O)[C@H](CCc1ccccc1)N[C@@H](C)C(=O)N1C(=O)N(C)C[C@H]1C(=O)O` [Imidapril (hydrochloride)], in assay [1] (Well no.=7686), the remaining activity at 3.75 µM came to 98%. Further, the remaining activity at 1.25 µM in assay [2] (Well no.=7686) was 99.8%.

Regarding `CCCCOc1ccc(C(=O)Nc2ccc(F)cc2F)cc1` [VU 0357121], the figures for the remaining activity at 3.75 µM in assay [1] (Well no.=4932) and in assay [1] (Well no.=7857) were 98.8% and 107%, respectively. The remaining activity at 1.25 µM in assay [2] (Well no.=4932) was determined as 99.8%; in assay [2] (Well no.=7857), 105%.

As for `CN1CCC(c2c[nH]c3ccc(O)cc23)CC1` [BRL 54443], the figures for the remaining activity at 3.75 µM in assay [1] (Well no.=5171) and in assay [1] (Well no.=6945) were 89.8% and 93.5%, respectively. For the same compound, the remaining activity at 1.25 µM came out at 98% in assay [2] (Well no.=5171) and 103% in assay [2] (Well no.=6945).

With `COc1cc2c(cc1OC)[C@H]1CC(=O)[C@H](CC(C)C)CN1CC2` [Tetrabenazine], in assay [1] (Well no.=7492), the remaining activity at 3.75 µM is 94.7%. Further, the remaining activity at 1.25 µM in assay [2] (Well no.=7492) amounted to 94.6%.

For the compound `CCCN[C@H]1CCc2nc(N)sc2C1` [Pramipexole], the remaining activity at 3.75 µM in assay [1] (Well no.=1983) was found to be 104%. In addition, the remaining activity at 1.25 µM in assay [2] (Well no.=1983) worked out at 101%.

For the compound `CCCCCCCCCCCCCC/C(C(=O)O)=C(\C)C(=O)O` [Chaetomellic acid A], in assay [1] (Well no.=3141), the remaining activity at 3.75 µM came to 96%. Besides, the remaining activity at 1.25 µM in assay [2] (Well no.=3141) turned out to be 95.8%.

Turning to `O=C1c2c(O)ccc(O)c2C(=O)c2c(NCCNCCO)ccc(NCCNCCO)c21` [Mitoxantrone HCl], the remaining activity at 3.75 µM in assay [1] (Well no.=4904) worked out at 91.1%. For the same compound, the remaining activity at 1.25 µM in assay [2] (Well no.=4904) is 93.4%.

As for `CC1(C)CC=C(c2cnc3ccccc3c2)c2cc(C(=O)Nc3ccc(C(=O)O)cc3)ccc21` [BMS-195614], in assay [1] (Well no.=5458), the remaining activity at 3.75 µM amounted to 103%. In addition, the remaining activity at 1.25 µM in assay [2] (Well no.=5458) turned out to be 98.2%.

As to `Nc1nc2c(ncn2COC(CO)CO)c(=O)[nH]1` [Ganciclovir], the remaining activity at 3.75 µM came out at 97.3% in assay [1] (Well no.=667), 99.3% in assay [1] (Well no.=2168) and 97.7% in assay [1] (Well no.=8062). The figures for the remaining activity at 1.25 µM in assay [2] (Well no.=667), in assay [2] (Well no.=2168) and in assay [2] (Well no.=8062) were 99.1%, 97.3% and 97.2%, respectively.

Consider `CC1(C)S[C@@H]2[C@H](NC(=O)[C@H](C(=O)O)c3ccsc3)C(=O)N2[C@H]1C(=O)O` [Ticarcillin (disodium)], for which the remaining activity at 3.75 µM in assay [1] (Well no.=7782) is 109%. In addition, the remaining activity at 1.25 µM in assay [2] (Well no.=7782) amounted to 105%.

Take `c1cc(OCCN2CCCCC2)cc(-c2n[nH]c3ccc(-c4nnc[nH]4)cc23)c1` [CC-401]: the remaining activity at 3.75 µM in assay [1] (Well no.=3027) amounted to 96.9%. In assay [2] (Well no.=3027), the remaining activity at 1.25 µM worked out at 99.3%.

In the case of `CN(C)CC(=O)O` [N-Methylsarcosine], the remaining activity at 3.75 µM in assay [1] (Well no.=6873) worked out at 102%. In addition, the remaining activity at 1.25 µM in assay [2] (Well no.=6873) came out at 104%.

Regarding `N[C@@H](Cc1ccc(O)c(O)c1)C(=O)O` [L-3,4-Dihydroxyphenylalanine], the remaining activity at 3.75 µM in assay [1] (Well no.=634) was determined as 105%. Further, the remaining activity at 1.25 µM in assay [2] (Well no.=634) turned out to be 101%.
